Each structure is given as a SMILES string. Numbers after ± are expanded uncertainties.

Series [1] can be described thus: refractive index (Na D-line) (dimensionless); wn = mass fraction of the nth substance listed. As to conditions: 338.15 K, 98 kPa, Liquid, Standard Abbe refractometry.
Series [2] is described as follows: refractive index (Na D-line) (dimensionless). As to conditions: 338.15 K; 98 kPa; Liquid; Standard Abbe refractometry.

The refractive index is the speed of light in vacuum divided by its phase velocity in the sample. For `O=C(CO)[C@@H](O)[C@H](O)[C@H](O)CO` [D-fructose] + O, the refractive index in series [1] (w1 = 0.2189) came to 1.3687 ± 0.0096; in series [1] (w1 = 0.3592) it was 1.3945 ± 0.0096; in series [1] (w1 = 0.4567), 1.4159 ± 0.0096; in series [1] (w1 = 0.5286) it was 1.4339 ± 0.0096; in series [1] (w1 = 0.5759), 1.4393 ± 0.0096; in series [1] (w1 = 0.579), 1.4413 ± 0.0096. In addition, in series [1] (w1 = 0.5836), the refractive index amounted to 1.4428 ± 0.0096.

For the compound `CCO` [ethanol] + O, the refractive index turned out to be 1.3363 ± 0.0096 in series [1] (w1 = 0.2), 1.3415 ± 0.0096 in series [1] (w1 = 0.4), 1.3569 ± 0.0096 in series [1] (w1 = 0.6) and 1.3587 ± 0.0096 in series [1] (w1 = 0.9).

On to `O` [water], for which the refractive index in series [2] stood at 1.323 ± 0.0096.
